± gives the standard deviation of the averaged measurements.
Key:
Experiment in all cases: activity (1 - area under the dose-response curve within the screened range) (fraction); higher = more sensitive
Details in all cases: treatment time: 72 h
HCM-SANG-0532-C20 = test system: HCM-SANG-0532-C20 (colorectal cancer organoid)
Experimental: (§1)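 Patient-derived cancer organoids (colorectal and oesophageal, HCM-SANG models) were grown for up to 6 months in 5% or 80% ECM (BME-2), then seeded in 384-well plates on an ECM layer and treated with 72 compounds for 3 days. Each compound used a 7-point half-log dilution series spanning a 1000-fold range, in technical triplicate and biological duplicate. Dose-response curves were fitted with a non-linear mixed effects model; fits with RMSE > 0.3 were removed, and activity = 1 - AUC within the screened dose range (0 = no activity, 1 = maximum).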

HCM-SANG-0270-C20 = test system: HCM-SANG-0270-C20 (colorectal cancer organoid)
Experimental: as §1

HCM-SANG-0291-C15 = test system: HCM-SANG-0291-C15 (oesophageal cancer organoid)
Experimental: as §1

HCM-SANG-0266-C20 = test system: HCM-SANG-0266-C20 (colorectal cancer organoid)
Experimental: as §1

[1] = ECM percentage in culture prior to screening 5 %
[2] = ECM percentage in culture prior to screening 80 %

SMILES	activity (HCM-SANG-0532-C20; [1])	activity (HCM-SANG-0532-C20; [2])	activity (HCM-SANG-0270-C20; [1])	activity (HCM-SANG-0270-C20; [2])	activity (HCM-SANG-0291-C15; [1])	activity (HCM-SANG-0291-C15; [2])	activity (HCM-SANG-0266-C20; [1])	activity (HCM-SANG-0266-C20; [2])
CC(=O)c1c(C)c2cnc(Nc3ccc(N4CCNCC4)cn3)nc2n(C2CCCC2)c1=O [Palbociclib]	0.0593 ± 0.019	0.102 ± 0.034	0.0934 ± 0.03	0.0559 ± 0.031	0.0779 ± 0.033	0.0409 ± 0.013	0.0791 ± 0.052	0.0779 ± 0.05
Nc1nc2[nH]cc(CCc3ccc(C(=O)N[C@@H](CCC(=O)O)C(=O)O)cc3)c2c(=O)[nH]1 [Pemetrexed]	0.0604 ± 0.023	0.0425 ± 0.012	0.117 ± 0.049	0.164 ± 0.1	0.0737 ± 0.036	0.0434 ± 0.025	0.0697 ± 0.056	0.0926 ± 0.047
CS(=O)(=O)N1CCN(Cc2cc3nc(-c4cccc5[nH]ncc45)nc(N4CCOCC4)c3s2)CC1 [Pictilisib]	0.12 ± 0.07	0.155 ± 0.039	0.0973 ± 0.037	0.0554 ± 0.033	0.0595 ± 0.032	0.0514 ± 0.019	0.198 ± 0.059	0.152 ± 0.068
O=C1NC(=NCc2cccs2)S/C1=C\c1ccc2ncccc2c1 [RO-3306]	0.117 ± 0.033	0.108 ± 0.016	0.0909 ± 0.041	0.0974 ± 0.033	0.0636 ± 0.017	0.0709 ± 0.026	0.123 ± 0.017	0.152 ± 0.035
CN(C)C(=O)c1cc2cnc(Nc3ccc(N4CCNCC4)cn3)nc2n1C1CCCC1 [Ribociclib]	0.0436 ± 0.036	0.0301 ± 0.0069	0.046 ± 0.028	0.0291 ± 0.019	0.0289 ± 0.0084	0.0323 ± 0.016	0.0335 ± 0.011	0.0512 ± 0.053
N#CC[C@H](C1CCCC1)n1cc(-c2ncnc3[nH]ccc23)cn1 [Ruxolitinib]	0.0295 ± 0.011	0.0236 ± 0.0026	0.0225 ± 0.0051	0.0229 ± 0.007	0.0206 ± 0.0044	0.0196 ± 0.0023	0.0203 ± 0.00098	0.03 ± 0.01
CNC(=O)CN1CCC(Oc2cc3c(Nc4cccc(Cl)c4F)ncnc3cc2OC)CC1 [Sapitinib]	0.119 ± 0.038	0.179 ± 0.043	0.236 ± 0.12	0.139 ± 0.12	0.207 ± 0.076	0.159 ± 0.025	0.255 ± 0.081	0.121 ± 0.1
CN1CCN(CCOc2cc(OC3CCOCC3)c3c(Nc4c(Cl)ccc5c4OCO5)ncnc3c2)CC1 [Saracatinib]	0.155 ± 0.067	0.141 ± 0.028	0.121 ± 0.071	0.0918 ± 0.067	0.159 ± 0.035	0.185 ± 0.024	0.156 ± 0.038	0.126 ± 0.041
CNC(=O)c1cc(Oc2ccc(NC(=O)Nc3ccc(Cl)c(C(F)(F)F)c3)cc2)ccn1 [Sorafenib]	0.0823 ± 0.0072	0.123 ± 0.033	0.0957 ± 0.011	0.102 ± 0.068	0.0375 ± 0.016	0.0266 ± 0.009	0.122 ± 0.014	0.106 ± 0.013
Cn1ncnc1[C@H]1c2n[nH]c(=O)c3cc(F)cc(c23)N[C@@H]1c1ccc(F)cc1 [Talazoparib]	0.0688 ± 0.05	0.0443 ± 0.014	0.0426 ± 0.031	0.0374 ± 0.026	0.249 ± 0.036	0.275 ± 0.045	0.0908 ± 0.022	0.0937 ± 0.043
CC/C(=C(\c1ccccc1)c1ccc(OCCN(C)C)cc1)c1ccccc1 [Tamoxifen]	0.0364 ± 0.025	0.0524 ± 0.021	0.0375 ± 0.013	0.0425 ± 0.025	0.0279 ± 0.013	0.0235 ± 0.0053	0.0883 ± 0.053	0.0314 ± 0.011
Cc1nc(-c2cn3c(n2)-c2ccc(-c4cnn(C(C)(C)C(N)=O)c4)cc2OCC3)n(C(C)C)n1 [Taselisib]	0.158 ± 0.12	0.249 ± 0.059	0.0832 ± 0.048	0.0597 ± 0.055	0.0465 ± 0.018	0.0601 ± 0.017	0.413 ± 0.13	0.263 ± 0.14
Cn1nnc2c(C(N)=O)ncn2c1=O [Temozolomide]	0.0253 ± 0.0078	0.024 ± 0.0046	0.028 ± 0.013	0.0261 ± 0.0071	0.02 ± 0.0034	0.0234 ± 0.0089	0.0575 ± 0.021	0.0651 ± 0.031
COc1cc2nccc(Oc3ccc(NC(=O)Nc4cc(C)on4)c(Cl)c3)c2cc1OC [Tivozanib]	0.0321 ± 0.016	0.0237 ± 0.0055	0.0217 ± 0.0076	0.0262 ± 0.01	0.0202 ± 0.0045	0.0228 ± 0.0062	0.0203 ± 0.0013	0.0214 ± 0.0013
Cc1cc(Nc2cc(N3CCN(C)CC3)nc(Sc3ccc(NC(=O)C4CC4)cc3)n2)n[nH]1 [Tozasertib]	0.16 ± 0.076	0.123 ± 0.046	0.0983 ± 0.062	0.0668 ± 0.034	0.0578 ± 0.037	0.0466 ± 0.014	0.222 ± 0.09	0.228 ± 0.033
CC(=O)Nc1cccc(-n2c(=O)n(C3CC3)c(=O)c3c(Nc4ccc(I)cc4F)n(C)c(=O)c(C)c32)c1 [Trametinib]	0.114 ± 0.065	0.146 ± 0.024	0.0906 ± 0.051	0.0586 ± 0.043	0.1 ± 0.019	0.0654 ± 0.02	0.207 ± 0.078	0.0946 ± 0.067
Cn1ncc(Cl)c1-c1cc(C(=O)N[C@H](CN)Cc2ccc(F)c(F)c2)oc1Cl [Uprosertib]	0.177 ± 0.14	0.159 ± 0.027	0.0769 ± 0.057	0.0584 ± 0.038	0.0195 ± 0.0032	0.0257 ± 0.018	0.218 ± 0.089	0.183 ± 0.08
CC1(C)CCC(CN2CCN(c3ccc(C(=O)NS(=O)(=O)c4ccc(NCC5CCOCC5)c([N+](=O)[O-])c4)c(Oc4cnc5[nH]ccc5c4)c3)CC2)=C(c2ccc(Cl)cc2)C1 [Venetoclax]	0.0233 ± 0.0047	0.0331 ± 0.0083	0.0303 ± 0.0092	0.0357 ± 0.029	0.0236 ± 0.007	0.0311 ± 0.022	0.0407 ± 0.02	0.0384 ± 0.018
CCC1=C[C@@H]2CN(C1)Cc1c([nH]c3ccccc13)[C@@](C(=O)OC)(c1cc3c(cc1OC)N(C)[C@H]1[C@@](O)(C(=O)OC)[C@H](OC(C)=O)[C@]4(CC)C=CCN5CC[C@]31[C@@H]54)C2 [Vinorelbine]	0.0815 ± 0.04	0.107 ± 0.011	0.0834 ± 0.05	0.095 ± 0.046	0.0831 ± 0.009	0.107 ± 0.024	0.153 ± 0.031	0.153 ± 0.039
O=C(CCCCCCC(=O)Nc1ccccc1)NO [Vorinostat]	0.132 ± 0.022	0.211 ± 0.034	0.163 ± 0.017	0.153 ± 0.028	0.232 ± 0.021	0.222 ± 0.03	0.225 ± 0.032	0.172 ± 0.032

Reference: the supplement of paper PMC8976852
